Earlier results, collected in patent US10993890B2, “Antifungal solution and foot wipe” (PELLI SKIN CO., LLC, priority 2018, dated 2021).

How the values were obtained:
[1] = octanol/water partition coefficient of the solvent
[2] = tested on: skin cells; conditions: 3% ethanol applied to skin cells over the course of two days

1,3-dioxolan
LogKow [1]: −0.37

C1CCOCOC1 [1,3-Dioxepane]
LogKow [1]: 0.7709

CC1COCO1 (centres unmarked) [4-Methyl-1,3-dioxolane]
LogKow [1]: 0.3792

OC1COCOC1 [5-Hydroxy-1,3-dioxane]
LogKow [1]: −1.082

CCO [ethanol]
increase of cell death [2]: 26%
